Measurements reported in ChEMBL document CHEMBL1201862, “PubChem BioAssay data set” (2004).
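In this assay, cells in 96-well plates receive the compound at five concentrations for 48 hours. Endpoints are linearly interpolated between the surrounding concentrations. GI50 is the concentration that inhibits growth by half.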 Active and inactive are the calls of the source. Rule as the data show it: active = GI50 up to about 1.1 µM and inactive = higher.

Tests used:
Experiment in all cases: NCI anticancer screen, dose series, 48 h
M14 = system: M14
HCT-15 = system: HCT-15
SR = system: SR
SF-268 = system: SF-268
Malme-3M = system: Malme-3M
IGROV-1 = system: IGROV-1
U-251 = system: U-251
OVCAR-5 = system: OVCAR-5
SW-620 = system: SW-620
UACC-62 = system: UACC-62
SF-539 = system: SF-539
HCC 2998 = system: HCC 2998
SK-MEL-28 = system: SK-MEL-28
MOLT-4 = system: MOLT-4
T47D = system: T47D
EKVX = system: EKVX
MCF7 = system: MCF7
NCI-H23 = system: NCI-H23
TK-10 = system: TK-10
OVCAR-8 = system: OVCAR-8

Row | Structure (SMILES) | GI50 (M14) | GI50 (HCT-15) [µM] | GI50 (SR) | GI50 (SF-268) | GI50 (Malme-3M) | GI50 (IGROV-1) | GI50 (U-251) | GI50 (OVCAR-5) | GI50 (SW-620) | GI50 (UACC-62) | GI50 (SF-539) | GI50 (HCC 2998) | GI50 (SK-MEL-28) | GI50 (MOLT-4) | GI50 (T47D) | GI50 (EKVX) | GI50 (MCF7) | GI50 (NCI-H23) | GI50 (TK-10) | GI50 (OVCAR-8)
1 | CCCCCCCCCCCCCCCC(=O)OCC(O)C1OC(=O)C(O)=C1O (configuration not stated) | 18.8 µM (inactive) | 32.5 | 58.2 µM (inactive) | 26.4 µM (inactive) | > 100 µM (inactive) | 37.6 µM (inactive) | 28.1 µM (inactive) | 33.9 µM (inactive) | 37.9 µM (inactive) | 27.5 µM (inactive) | 27.4 µM (inactive) | > 100 µM (inactive) | 20.4 µM (inactive) | 62.7 µM (inactive) | 97.9 µM (inactive) | > 100 µM (inactive) | < 0.01 µM (active) | 3.21 µM (inactive) |  | 
2 | O=C(O)c1ccc(C2SCc3nc4ccccc4n32)cc1 (configuration not stated) | > 100 µM (inactive) | > 100 | > 100 µM (inactive) | > 100 µM (inactive) | > 100 µM (inactive) | > 100 µM (inactive) | > 100 µM (inactive) | > 100 µM (inactive) | > 100 µM (inactive) |  | > 100 µM (inactive) | > 100 µM (inactive) | > 100 µM (inactive) | > 100 µM (inactive) | > 10 µM (inactive) | > 100 µM (inactive) | > 100 µM (inactive) | > 100 µM (inactive) | > 100 µM (inactive) | > 100 µM (inactive)
3 | O=c1cc(-c2ccccc2)[nH]c2ccc(S)cc12 | 25.9 µM (inactive) | 16.8 | 30.8 µM (inactive) | 41.9 µM (inactive) | 27.5 µM (inactive) | 29.8 µM (inactive) | 26.1 µM (inactive) | 86.3 µM (inactive) | 38.7 µM (inactive) | 17.2 µM (inactive) | 72.3 µM (inactive) | 21 µM (inactive) | 28.8 µM (inactive) | 14.3 µM (inactive) | 15.1 µM (inactive) |  | 24.2 µM (inactive) | 33.9 µM (inactive) | 33.9 µM (inactive) | 31.7 µM (inactive)
4 | COc1ccc(/N=N/C(=N\c2ccc(Cl)cc2)c2ccc(N(CCC#N)CCC#N)cc2)cc1 | 57.5 µM (inactive) | 2.39 | 0.834 µM (active) | 41.3 µM (inactive) |  | 56.4 µM (inactive) | 41.4 µM (inactive) | 47 µM (inactive) | 24.7 µM (inactive) | 1.49 µM (inactive) | > 100 µM (inactive) | 4.91 µM (inactive) | > 100 µM (inactive) | 15.3 µM (inactive) | 1.71 µM (inactive) | 51.4 µM (inactive) | 8.05 µM (inactive) | 40.9 µM (inactive) | 38.7 µM (inactive) | > 100 µM (inactive)
5 | CC(=O)OC1[C@@H](OC(C)=O)CN(OCc2ccccc2)C[C@H]1OC(C)=O (some centres not stated) | > 100 µM (inactive) | > 100 | > 100 µM (inactive) | > 100 µM (inactive) |  | > 100 µM (inactive) | > 100 µM (inactive) | > 100 µM (inactive) | > 100 µM (inactive) | > 100 µM (inactive) | > 100 µM (inactive) | > 100 µM (inactive) | > 100 µM (inactive) | > 100 µM (inactive) | > 100 µM (inactive) | > 100 µM (inactive) | > 100 µM (inactive) | > 100 µM (inactive) | > 100 µM (inactive) | > 100 µM (inactive)
6 | CC(C)(C)/C(O)=C\c1nc2cc(F)c(F)cc2[nH]c1=O | > 100 µM (inactive) | > 100 | > 100 µM (inactive) | > 100 µM (inactive) |  | > 100 µM (inactive) | > 100 µM (inactive) |  | > 100 µM (inactive) | > 100 µM (inactive) | > 100 µM (inactive) | > 100 µM (inactive) | > 100 µM (inactive) | 48.4 µM (inactive) | > 100 µM (inactive) | > 100 µM (inactive) | > 100 µM (inactive) | > 100 µM (inactive) | > 100 µM (inactive) | > 100 µM (inactive)
7 | CN1CCN(c2ccc3[nH]c(-c4ccc5[nH]c(CCCc6ccc(N(CCCl)CCCl)cc6)nc5c4)nc3c2)CC1 | > 100 µM (inactive) | > 100 | 96.2 µM (inactive) | > 100 µM (inactive) | > 100 µM (inactive) | 13.5 µM (inactive) | > 100 µM (inactive) | > 100 µM (inactive) | > 100 µM (inactive) | 84.5 µM (inactive) | > 100 µM (inactive) | > 100 µM (inactive) | > 100 µM (inactive) | 77.8 µM (inactive) | > 100 µM (inactive) |  | 64.3 µM (inactive) | > 100 µM (inactive) | > 100 µM (inactive) | > 100 µM (inactive)
8 | O=C1CN(C(=O)C2CCCN2C(=O)C2CCCN2)C(=O)CN1 (configuration not stated) | > 100 µM (inactive) | > 100 | > 100 µM (inactive) | > 100 µM (inactive) | > 100 µM (inactive) | > 100 µM (inactive) | > 100 µM (inactive) | > 100 µM (inactive) | > 100 µM (inactive) | > 100 µM (inactive) |  | > 100 µM (inactive) | > 100 µM (inactive) | > 100 µM (inactive) | > 100 µM (inactive) | > 100 µM (inactive) | > 100 µM (inactive) | > 100 µM (inactive) | > 100 µM (inactive) | > 100 µM (inactive)
9 | COc1cc2c(cc1OC)C1C=NC(C2)c2cc(OC)c(OC)cc21 (configuration not stated) | > 100 µM (inactive) | 85.9 | 69.3 µM (inactive) | > 100 µM (inactive) |  | 96.4 µM (inactive) | > 100 µM (inactive) | > 100 µM (inactive) | > 100 µM (inactive) | > 100 µM (inactive) | > 100 µM (inactive) | > 100 µM (inactive) | > 100 µM (inactive) | 40.5 µM (inactive) | 90.8 µM (inactive) | 85.9 µM (inactive) | 60.1 µM (inactive) |  | > 100 µM (inactive) | 96.2 µM (inactive)
10 | COc1ccc2[nH]cc(CN3CCC(CO)(c4ccccc4)CC3)c2c1 | 17.3 µM (inactive) | 35.1 | 22.1 µM (inactive) | 11.9 µM (inactive) | 25.8 µM (inactive) | 38.5 µM (inactive) | 30.3 µM (inactive) | 68.5 µM (inactive) | 21.2 µM (inactive) | 25.9 µM (inactive) |  | 21 µM (inactive) | 17.9 µM (inactive) | 21 µM (inactive) | 20.9 µM (inactive) | 8.28 µM (inactive) | 20.8 µM (inactive) | 91.6 µM (inactive) | 95.9 µM (inactive) | 52.7 µM (inactive)
11 | O=C(NC1(c2cc3ccccc3s2)CCCCC1)C1CCC1 | > 100 µM (inactive) | > 100 | > 100 µM (inactive) |  | > 100 µM (inactive) | > 100 µM (inactive) | > 100 µM (inactive) | > 100 µM (inactive) | > 100 µM (inactive) | > 100 µM (inactive) | 23.1 µM (inactive) | > 100 µM (inactive) | 66.8 µM (inactive) | > 100 µM (inactive) | > 100 µM (inactive) | > 100 µM (inactive) | > 100 µM (inactive) | > 100 µM (inactive) | > 100 µM (inactive) | 66.4 µM (inactive)
12 | O=c1cc(-c2ccccc2)[nH]c2ccc(N3CCCC3)cc12 | < 0.0123 µM (active) | 0.0743 | 0.0184 µM (active) | 0.173 µM (active) | > 100 µM (inactive) | 0.267 µM (active) | 0.0102 µM (active) | 31.6 µM (inactive) | < 0.01 µM (active) | < 0.01 µM (active) | 0.0123 µM (active) | 0.172 µM (active) | 0.0533 µM (active) | 0.0794 µM (active) | > 100 µM (inactive) |  | 4.58 µM (inactive) | 0.299 µM (active) | 5.62 µM (inactive) | 0.0365 µM (active)
13 | OCCCSc1ccccc1SCCCO | > 100 µM (inactive) | > 100 | > 100 µM (inactive) | > 100 µM (inactive) |  | > 100 µM (inactive) | > 100 µM (inactive) | > 100 µM (inactive) | > 100 µM (inactive) | > 100 µM (inactive) | > 100 µM (inactive) | > 100 µM (inactive) | > 100 µM (inactive) | > 100 µM (inactive) | > 100 µM (inactive) | > 100 µM (inactive) | > 100 µM (inactive) | > 100 µM (inactive) | > 100 µM (inactive) | > 100 µM (inactive)
14 | O=C(c1cc(Cl)ccc1Cl)N1CCN(c2ccc(Cl)c(Cl)c2)CC1 | > 10 µM (inactive) | 13.2 | 34.9 µM (inactive) | 47.2 µM (inactive) | 17.9 µM (inactive) | 39.4 µM (inactive) | 27.2 µM (inactive) | 16.6 µM (inactive) | 49.1 µM (inactive) |  | 19.2 µM (inactive) | 26.7 µM (inactive) | 39.6 µM (inactive) | 20.6 µM (inactive) | 2.45 µM (inactive) | 37.2 µM (inactive) | 8.67 µM (inactive) | 33.5 µM (inactive) | 31.9 µM (inactive) | 12.5 µM (inactive)
15 | c1ccc(CSSSCc2ccccc2)cc1 [DIBENZYL TRISULFIDE] | 2.27 µM (inactive) | 0.581 | 4.06 µM (inactive) | 3.57 µM (inactive) | 7.36 µM (inactive) | 2.8 µM (inactive) | 2.01 µM (inactive) | 3.62 µM (inactive) | 0.115 µM (active) | 2.15 µM (inactive) |  | 5.58 µM (inactive) | 20.7 µM (inactive) | 0.139 µM (active) | 19.8 µM (inactive) | 6.52 µM (inactive) | 0.385 µM (active) | 2.4 µM (inactive) | 1.62 µM (inactive) | 1.15 µM (inactive)
